Read-outs that look alike come from different tables or passages of the source.
Tests used:
[1] = tested on: Vascular smooth muscle (BO54) cells; type: cell-based, baboon
[2] = tested on: Vascular smooth muscle (BO54) cells; type: cell-based, baboon; remark: listed apart in the source
[3] = tested on: vascular smooth muscle cells; type: in vivo, pig; conditions: 4 days post-trauma
[4] = Biodistribution after i.p. injection (HPLC); type: in vivo, mice
Procedure: Biodistribution of Cytochalasin B. To determine the biodistribution of cytochalasin B, mice were injected (i.p.) with 50 mg/kg cytochalasin B. Control mice were injected with DMSO/Tween 20/carboxymethyl cellulose ("vehicle"). The mice were sacrificed at 3, 12, 24 and 72 hours after cytochalasin B or vehicle administration. Organs were removed, homogenized, extracted and the amount of cytochalasin B in tissues quantitated by HPLC. About 75% of the cytochalasin B remained in the peritoneal cavity or at the injection site.

[5] = tested on: Pig femoral arteries; assay: Biological stenting of balloon traumatized femoral arteries (luminal area morphometry); type: in vivo
Procedure: Pig femoral arteries were traumatized as described in Example 7, and then treated with cytochalasin B. About 1.5 to about 2 ml of cytochalasin B at 0.1 µg/ml was infused into portions of the artery that had been separated from other portions by ligatures. The artery was then pressurized for 3 minutes and the fluid aspirated. Approximately 8 to about 30 lambda of the solution is retained in the interstitial space surrounding the cells in the tunica media. Ten femoral arteries (two arteries obtained from each of the 5 pigs that were treated according to the single dose protocol described in Example 7) were then evaluated histologically at 4 days or 3 weeks after cytochalasin B adminstration. The maximal luminal area of each artery was measured and calculated from digitized microscopic images by a BQ System IV computerized morphometric analysis system (R & M Biometrics, Inc., Nashville, TN). This experiment was repeated with 5 additional pigs (two arteries per pig; cytochalasin B dose = 0.1 µg/ml, applied for 3 minutes at 1 atm pressure; same time points). The data obtained from the two experiments were combined.
The luminal area of the traumatized and cytochalasin B-treated segments of the arteries were also compared to the luminal area of the normal, untreated region of the femoral artery proximal to the test area.
A cytochalasin B dose response study was then conducted on 10 pigs, following the experimental protocol described in Example 7. Briefly, both femoral arteries in each of 2 pigs were treated with one of the following doses of cytochalasin B: 0.0 µg/ml (i.e., PBS negative control); 0.01 µg/ml; 0.10 µg/ml; 1.0 µg/ml; and 10.0 µg/ml as described above. The agent was delivered by intraluminal catheter at 1 atm pressure for 3 minutes, and the arteries were evaluated 3 weeks later by the morphometric analysis system described above. The ratio of treated artery luminal area to proximal normal artery luminal area was determined as a percent change in treated vs. normal area, or the artery lumen size (diameter or cross sectional area) of treated arteries relative to traumatized but untreated arteries.
Balloon traumatized swine femoral arteries from control and treated (0.1 µg/ml cytochalasin B) were evaluated at 1, 4, 7, 14, or 21 days after intervention. […] A two way analysis of variance indicated a statistically significant difference (p<.05) in the artery lumen areas over three weeks between the cytochalasin B treated and diluent control groups.

[6] = tested on: swine coronary arteries; assay: Dose-response study of balloon traumatized coronary arteries (morphometry); type: in vivo
[7] = tested on: Vascular smooth muscle cells; conditions: 1 µg/ml; an anti-migration/contraction effective dose
[8] = mouse, in vivo
[9] = tested on: left carotid artery
[10] = tested on: Vascular smooth muscle cells (BO54); assay: Scratch assay of smooth muscle cell migration; type: cell-based, baboon; set-up: key: - = no toxicity; +1 = minimal; +2 = mild; +3 = moderate; +4 = marked toxicity; conditions: Day 1/3/6/8/10 = r6/r8/r10/r12/r14
Procedure: Scratch assays to determine the extent of smooth muscle cell migration inhibition by cytochalasin B were performed in accordance with the following protocol: • Vascular smooth muscle cells (BO54) were derived from explants of baboon aortic smooth muscle, as described in Example 10. The cells were grown in flat bottom, six well tissue culture plates, which hold about 5 ml of medium. The vascular smooth muscle cells were plated at 200,000 cells/well and placed at 37°C in a humidified 5% CO2 incubator for 18 hours. The wells were then scratched with a sterile portion of a single edge razor blade that was held by clamp or pliers and was brought aseptically into contact with the bottom of the well at a 90° angle. The cells from a small area along the scratch were removed by a sterile cotton tipped applicator while the blade was in contact with the bottom of the well. After incubation, the presence of cells in the "scratched" area is indicative of cell migration across the scratch line.
Briefly, a stock solution of cytochalasin B (Sigma Chemical Co.) in dimethyl sulfoxide (DMSO) at 1 mg/ml was prepared. Test dilutions of cytochalasin B or control medium were added. Each experiment included two sets of plates: A set: Test agent exposure for 1, 3, 6, 8 and 10 days only; and B set: Test agent exposure for 1, 3, 6, 8 and 10 days, followed by a seven day recovery time with control medium. Both sets of plates were fixed (10% formalin in PBS) and stained (0.02% crystal violet) at the end of the timed exposures. Test concentrations for cytochalasin B were 1, 0.1 and 0.01 µg/ml, and a negative medium control was included. Fresh medium and drug were supplied 3 times per week.
In this Table, "M" indicates Migration Grade, wherein - = no migration; +1 = minimal; +2 = mild; +3 = moderate; and +4 = marked (maximum density; limit of cell contact inhibition) migration of vascular smooth muscle cells into the cleared area adjacent to the scratch. In this Table, "T" denotes a morphological Toxicity Grade, wherein - = no toxicity; +1 = minimal; +2 = mild; +3 = moderate; and +4 = marked toxicity. The migration results are expressed as "Grade in the Cleared Area of the Well / Grade in an Undisturbed Region of the Well." The toxicity values represent a grade for all cells in each well.

With C=C1[C@@H](C)[C@H]2[C@H](Cc3ccccc3)NC(=O)[C@]23OC(=O)/C=C/[C@H](O)CCC[C@@H](C)C/C=C/[C@H]3[C@@H]1O [cytochalasin B] the “minimum effective dose (MED), protein synthesis assay” value ([1]; 5 minute exposure) was 10 µg/mL, the “minimum effective dose (MED), protein synthesis assay” value ([1]; 24 hour exposure) was 1.0 µg/mL and the “minimum effective dose (MED), DNA assay” value ([2]; 5 minute exposure) was 10 µg/mL. For the same compound, the “therapeutic range (area under the curve of ^3H-leucine assay greater than ^3H-thymidine assay)” value ([2]; 24 hour assays, 5% FBS) was “available therapeutic range”, the “minimum effective dose (MED), DNA synthesis assay” value ([2]; 24 hour exposure) was 0.1 µg/mL and the BRDU labeling grade [3] was 4 (4 = > 10/HPF). The “organ with the highest amount” value ([4]; 50 mg/kg i.p.) was “highest amount of cytochalasin B was found in the liver”, the “remained in the peritoneal cavity or at the injection site” value ([4]; 50 mg/kg i.p.) was “About 75%” and the maximum tolerated dose ([4]; may be administered every second day) was 50 mg/kg. The “percent change in treated vs. normal luminal area” value ([5]; 0.1 µg/ml, 1 atm for 3 minutes, 3 weeks later) was roughly 140%, the “artery lumen area over three weeks” value ([5]; 0.1 µg/ml, 1, 4, 7, 14, or 21 days after intervention) was “sustained dilation which changed very little between days 7 and 21” and the “luminal area compared to other test agents or controls” value ([5]; 0.1 µg/ml, 4 day and 3 week post-treatment) was “larger luminal area”. For the same compound, the toxicity ([5]; at 10 µg/ml) was “no evidence of toxicity”, the “threshold level of the therapeutic effect” value ([5]; no effect below this dose) was 0.1 µg/mL and the “lumen area in the test region compared to the normal control segment of the same artery” value ([5]; pig, in vivo) was “approximately two times as large”. The “Mean % Lumen Area” value ([6]; 0.1 µg/mL, 4 Days Post Surgery) was 97.0%, the “Mean % Lumen Area” value ([6]; 1.5 µg/mL, 4 Days Post Surgery) was 101.7% and the “Mean % Lumen Area” value ([6]; 1.5 µg/mL, 21 Days Post Surgery) was 100.9%. The “Mean % Lumen Area” value ([6]; 10µg/mL, 4 Days Post Surgery) was 103.9%, the “Mean % Lumen Area” value ([6]; 10 µg/mL, 21 Days Post Surgery) was 110.9% and the “myocardial or arterial lesions (histology)” value ([6]; 0.1, 1.5 or 10.0 µg/ml) was “did not result in myocardial or arterial lesions”. For the same compound, the “Mean % Lumen Area” value ([6]; 0.1 µ/mL, 21 Days Post Surgery) was 98.0%, the cytotoxicity grade [7] was 1 and the levels in tissues [8] was “very low levels”. For the same compound, the “maximal recovery from tissue extracts” value ([8]; iv, 3.5 mg/kg) was 32%, the “morphometry compared to untreated control animals” value ([9]; 14 days, periadventitial crystals) was “no statistical difference from the controls” and the “toxicity at the surgical site” value ([9]; periadventitial crystals: cytochalasin B 7.8 - 11.8 mg/rat, taxol 3.4 - 6.5 mg/rat) was “significant toxicity at the surgical site”. For the same compound, the “morphological Toxicity Grade” value ([10]; 7-day Recovery Post Exposure, 0.01 µg/mL) was “-”, the “morphological Toxicity Grade” value ([10]; 7-day Recovery Post Exposure, 0.1 µg/mL) was “-” and the “morphological Toxicity Grade” value ([10]; Continuous Exposure, 0.1 µg/mL, listed as CY[…]) was “-”. The “morphological Toxicity Grade” value ([10]; Continuous Exposure, 1.0 µg/mL, listed as CY[…]) was “+4”.

From EP2292225A1 (priority 1997, dated 1998)
